The target in assay [1] is T1, recombinant alpha-synuclein (SYN) protein (Homo sapiens, UniProt P37840).
T1 construct: purchased rPeptide
In words: Precipitation of recombinant alpha-synuclein spiked into human plasma by agent I, protein gel and Western blotting. To be noted: 50 to 500 mg/ml agent I, 60 minutes at 37° C., Western blotting. The procedure:
After migration, two options are used: • The protein gel is stained with Coomassie Blue by adding gelcode blue stain reagent (Pierce) overnight at ambient temperature with shaking. […] 9.2 Detection in the Presence of the Agent I
The pellets are recovered and are separated from the supernatants. All the fractions are conserved. The pellets are taken up with 250 μl of SDS buffer. After denaturation, all the fractions are analyzed by the Western blotting technique.
Background: In western blotting, separated proteins are transferred to a membrane and probed.

Assay [2] has as its target T2, phosphorylated Tau protein (Homo sapiens, UniProt P10636).
T2 construct: The assays are carried out with 25 ng of brain extracts; from tissue; host or cells: brain extracts from Alzheimer (AD+) and non-Alzheimer (AD-) patients, diluted in a pool of normal plasmas
In words: Precipitation of phosphorylated Tau protein from brain extracts spiked into plasma by agent I, PhosphoTau ELISA of pellet and supernatant. To be noted: TET 100 mg/ml, 60 minutes at 37° C. On the technique in general: In an ELISA, binding on a coated surface is turned into a signal by an enzyme label.
Experimental: The PhosphoTau Elisa assay is based on the use of Dynex microplates to which are bound 3 μg/ml of goat anti-mouse Fc antibodies (Pierce) in a 25 mM KHPO4 buffer (pH 7.2) containing 140 mM NaCl, 1 mM EDTA and 2 mM NaN3, for three hours at 24° C. The wells are then passivated with a TBS (25 mM Tris-HCl, pH 7.5, 140 mM NaCl)-casein (1%) buffer for 1 h at 24° C., and then incubated for 2 h at 24° C. with 3 μg/ml of Tau1 (Chemicon) and CP27 (AppliedNeuroSolutions) antibodies diluted in TBS casein buffer.
Standards and brain extracts are diluted in a pool of normal plasmas for these assays and deposited at a rate of 80 μL per well in duplicate. […] 20 μl of this mixture are added to each well and incubated for 66 hours at 24° C. […] The biotinylated antibody is detected with 0.4 μg/ml of a streptavidin-peroxydase conjugate (Pierce) diluted in TBS-casein buffer and incubated for 45 minutes at 24° C. A Lumiglo reagent (Kirkegaard and Perry laboratories, US) is added to each well and the chemiluminescence is read in a luminometer (Berthold, Centro LB 960). […]
The samples are then centrifuged for 10 minutes at 13 000 rpm. […] The samples are then ready to be deposited on plates.
The samples are then centrifuged for 10 minutes at 13 000 rpm. […] The samples are then ready to be deposited onto plates.

For assay [3], the target named is T3, beta-amyloid peptide 1-42 (Homo sapiens, UniProt P05067).
T3 construct: synthetic beta-amyloid peptide 42 amino acids in length (beta-A peptide 1-42)
Put plainly: Circular dichroism of Aβ42 peptide with para-sulfonato-calix[4]arene. It is filed as binding. To be noted: in the presence of para-sulfonato-calix[4]arene, peptide/calixarene 1/1 to 1/5. Here is the method:
The analysis is carried out by circular dichroism.
(§1) The beta-amyloid peptide to be analyzed as defined above, also called Aβ42, is extemporaneously dissolved at a stock concentration of 2.2×10^−4M in a solution of trifluoroethanol (TFE) at 20% in water in order to structure the β-amyloid peptides. The para-sulfonato-calix[n]arenes, prepared as described in Da Silva, E. et al., 2003, Tetrahedron, 59(37): 7357-7364, are dissolved at 100 μM in 50 mM phosphate buffer. The samples are prepared so as to be able to obtain a final concentration of 10 μM of beta-amyloid peptide in a phosphate buffer, i.e. for a final volume of 500 μL. The peptide concentration/calixarene concentration ratios can vary from 1/0 to 1/5.
A β-amyloid control without para-sulfonato-calix[n]arene is carried out: 22.5 μL of Aβ42 stock solution at 2.2×10^−4M (5 nmol) in 20% TFE, 477.5 μL of 50 mM phosphate buffer.
The samples are analyzed by circular dichroism between 180 and 260 nm.
The control is a sample of Aβ42 peptide without calixarene (1/0). The solutions are prepared for a final volume of 500 μL. The Aβ42 peptide has a molar mass of 4514 g/mol, the para-sulfonato-calix[4]arene has a molar mass of 744 g/mol.

For assay [4], the target named is T3, beta-amyloid peptide 1-42. In words: Circular dichroism of Aβ42 peptide with chondroitin-6-sulfate. The class given is binding. The procedure:
as §1, with “2.2×10^-4M” for “2.2×10^−4M”, “para-sulfonato-[…],” for “para-sulfonato-calix[n]arenes,”, “1/5. The samples are analyzed by circular dichroism between 180 and 260 nm. The protocol described in Example 5 above was repeated, with the exception that chondroitin-6-sulfate (Sigma) was used as agent II.” for “1/5.”
(In general: CD spectra are sensitive to the conformation of chiral molecules.)

The test system of a further assay is recombinant Tau protein. In words: Capture/precipitation of recombinant Tau protein by agent II C6S, Western blotting of pellet and supernatant. To be noted: C6S 0.5 mM to 60 mM, 30 minutes at 37° C., centrifugation. Here is the method: It is identical to that described in point 2.1 above.
The assays are carried out as indicated in point 2.2 above, apart from the fact that C6S prepared as indicated patent application WO2004/059322 is used, with a concentration range of from 0.5 mM to 60 mM.

[5] abbreviates: chondroitin-6-sulfate at a concentration equal to that of Aβ42.

T3 sequence (P05067 672-713): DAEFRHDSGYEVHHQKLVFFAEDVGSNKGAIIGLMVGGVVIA
T2 sequence (P10636 1-441 isoform P10636-8): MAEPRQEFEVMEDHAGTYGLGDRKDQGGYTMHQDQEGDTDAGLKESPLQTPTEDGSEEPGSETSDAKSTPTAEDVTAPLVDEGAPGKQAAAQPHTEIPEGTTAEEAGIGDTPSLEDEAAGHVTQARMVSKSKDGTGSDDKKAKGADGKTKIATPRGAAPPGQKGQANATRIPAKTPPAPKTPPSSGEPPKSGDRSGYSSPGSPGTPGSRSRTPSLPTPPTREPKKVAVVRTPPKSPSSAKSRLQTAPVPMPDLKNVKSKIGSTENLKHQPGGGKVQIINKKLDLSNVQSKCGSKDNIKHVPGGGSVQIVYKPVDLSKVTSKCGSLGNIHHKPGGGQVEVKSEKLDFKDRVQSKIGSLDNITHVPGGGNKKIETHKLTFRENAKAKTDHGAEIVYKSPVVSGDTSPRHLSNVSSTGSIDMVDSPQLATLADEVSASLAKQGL

Consider `NCCNCCNCCN` [TET, triethylenetetramine], for which, in assay [1], the “completeness of precipitation of the Syn protein (protein found in the supernatant fraction)” value is on record as “not complete” and the “fraction in which the Syn protein is found after treatment with agent I” value was “found in the pellet”. Also, the “fraction in which the phosphorylated Tau protein is found after treatment with agent I” value in assay [2] was “found in the pellet”.

With `O=S(=O)(O)c1cc2c(O)c(c1)Cc1cc(S(=O)(=O)O)cc(c1O)Cc1cc(S(=O)(=O)O)cc(c1O)Cc1cc(S(=O)(=O)O)cc(c1O)C2` [para-sulfonato-calix[4]arene], in assay [3], the “aperiodic structure (200 nm) of Aβ42 as share of visible structures” value stood at 38%, the “α-helix structure (210 nm) of Aβ42 as share of visible structures” value is “more than 37%” and the “β-sheets (220 nm) of Aβ42 as share of visible structures” value is “more than 26%”.

On to `[H]/N=C(/N)N[C@H]1[C@H](O)[C@@H](O)[C@H](O[C@@H]2O[C@@H](C)[C@](O)(C=O)[C@H]2O[C@@H]2O[C@@H](CO)[C@H](O)[C@@H](O)[C@@H]2NC)[C@@H](N/C(N)=N\[H])[C@@H]1O` [streptomycin], for which, in assay [1], the “completeness of precipitation of the Syn protein (protein found in the supernatant fraction)” value is “not complete” and the “fraction in which the Syn protein is found after treatment with agent I” value was “found in the pellet”.

With chondroitin-6-sulfate, in assay [4] (setting [5]), the “aperiodic structure (at 200 nm) of Aβ42” value is reported as “greater than 26%”, the “α-helix (at 210 nm) of Aβ42” value is “more than 37%” and the “β-sheet of Aβ42 at 220 nm” value is recorded as “appears”. Moreover, the “secondary conformation adopted by Aβ42” value in assay [4] (chondroitin-6-sulfate five times greater than the Aβ42 peptide) was “essentially aperiodic structure”.

Take “p-sulfonato-3,7-(2-aminoethyloxy)calix-[6]-arene [C6S]”: the “fraction in which the Tau protein and its digested forms are found after treatment with C6S” value with recombinant Tau protein is “found in the pellet”.
